Measurements from patent US20040009921A1, “Methods and compositions for the treatment of cancer” (Allergan, Inc., priority 2002, published 2004).

What was measured:
[1] = molecular target: T1, RXRα (Homo sapiens, UniProt P19793); assay: Western blotting of RXRα protein in HEK293 cells and stable lines; format: cell-based
T1 construct: The RXRα coding region was amplified from this clone by PCR; expressed in transfected cells; host or cells: HEK293 (transient; CAT transfected with RXRα)
T1 sequence (P19793 1-462): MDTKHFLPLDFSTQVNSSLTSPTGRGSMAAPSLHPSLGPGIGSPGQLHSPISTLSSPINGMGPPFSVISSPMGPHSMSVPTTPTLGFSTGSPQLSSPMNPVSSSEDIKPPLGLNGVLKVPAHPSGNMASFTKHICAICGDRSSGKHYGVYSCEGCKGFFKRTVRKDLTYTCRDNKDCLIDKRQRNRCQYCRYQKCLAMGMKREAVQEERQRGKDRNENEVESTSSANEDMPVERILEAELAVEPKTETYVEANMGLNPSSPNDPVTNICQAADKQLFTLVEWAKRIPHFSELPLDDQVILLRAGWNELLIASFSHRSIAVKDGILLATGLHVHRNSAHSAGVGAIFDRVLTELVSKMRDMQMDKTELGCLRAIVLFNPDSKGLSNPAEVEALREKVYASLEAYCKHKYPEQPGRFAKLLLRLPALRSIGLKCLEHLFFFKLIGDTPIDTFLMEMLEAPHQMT
Description: (A) Western blotting analysis of HEK293 cells transfected with a combination of expression vectors for LacZ (2 μg), V5-tagged β-catenin(4 μg), and Flag-tagged RXRα (2 μg) as indicated below the gels. […] RXRα protein was measured using an HRP-conjugated mouse monoclonal antibody against the Flag tag. (B) Western blotting analysis of stable cell line RBC that overexpresses both β-catenin and RXRα. […] (C) Western blotting analysis of stable cell line CAT that overexpresses only β-catenin. […] Endogenous and overexpressed β-catenin were detected using a rabbit polyclonal antibody as indicated by “Total” whereas overexpressed β-catenin was analyzed using a mouse monoclonal antibody against the V5 tag. Endogenous and overexpressed RXRα were detected by a rabbit polyclonal antibody against RXRα, whereas overexpressed RXRα was determined by an HRP-conjugated mouse monoclonal antibody against the Flag tag. (D) Western blotting analysis of HEK293 cells transfected with a fixed amount of β-catenin (4 μg) plus an increasing amount of RXRα as indicated at the top. […] (E) Western blotting analysis of HEK293, CV-1, and Hela cells transfected with 2 μg of RXRα and 4 μg of wild type or mutant β-catenin. α. […] (F) Northern blotting analysis of RBC cells using β-catenin as a probe.
FIG. 4 Receptor and ligand specificity in degradation of β-catenin by retinoid receptors. HEK293 cells transfected with expression vectors for β-catenin (4 μg) and RXRs (2 μg) or RARs (2 μg) and treated with ligands at concentrations indicated at the top of each gel. Protein levels were detected by Western blotting as shown in this figure. β-catenin and RARs were detected by HRP-conjugated antibodies against their V5 tag. RXRs were detected by HRP-conjugated antibodies against their Flag tag. […] In this experiment, the amount of expression vectors for RXRα and RARs used in transfection was 1 μg.
HEK293 cells were seeded at a density of […] per dish were seeded into 100-mm dishes and cultured overnight in DMEM containing 10% FBS. Cells were transfected with 1-4 μg of various cDNA or parental expression vectors (8 μg of DNA in total) using Lipofectamine®. Five hours after transfection, cells were fed with fresh culture media DMEM containing 10% charcoal-treated FBS with vehicle DMSO or retinoids prepared in DMSO. After a given time of treatment, cells were harvested and lysed in a buffer containing 1% Nonidet® P-40, 30 mM Tris-HCl (pH7.4), 0.5 mM EDTA (pH 8.0), 150 mM NaCl, 10% glycerol, 1 mM sodium orthovanadate, 40 mM NaF, 0.5 mM phenylmethylsulfonyl fluoride (PMSF) and a cocktail of protease inhibitors (Merck).
Total cell lysates were homogenized by passing through a QIAshredder® (Qiagen) and cleared from insoluble materials by centriftigation at 12,000 g. Protein concentration was determined using a Bradford total protein assay kit (Bio-Rad). Total cell lysates were electrophoresed using a 4-12% SDS-PAGE gradient gel and transferred to either nitrocellulose or PVDF filter membranes. The membranes were blocked with 10% non-fat milk reconstituted from dairy milk powder in phosphate-buffered saline (PBS) containing 0.1% Tween®-20 (PBST). The membranes were incubated with primary antibodies at room temperature for 2 hours or at 4° C. for overnight. After the removal of unbound antibodies, membranes were incubated with horseradish peroxidase-conjugated secondary antibodies for one hour at room temperature and washed five times with PBST.

[2] = molecular target: T2, RARα (Homo sapiens, UniProt P10276); assay: Western blotting of RAR protein in transfected HEK293 cells; format: cell-based; conditions: HEK293 co-expressing RXRα with RARα
T2 construct: expressed in transfected cells; host or cells: HEK293
T2 sequence (P10276 1-462): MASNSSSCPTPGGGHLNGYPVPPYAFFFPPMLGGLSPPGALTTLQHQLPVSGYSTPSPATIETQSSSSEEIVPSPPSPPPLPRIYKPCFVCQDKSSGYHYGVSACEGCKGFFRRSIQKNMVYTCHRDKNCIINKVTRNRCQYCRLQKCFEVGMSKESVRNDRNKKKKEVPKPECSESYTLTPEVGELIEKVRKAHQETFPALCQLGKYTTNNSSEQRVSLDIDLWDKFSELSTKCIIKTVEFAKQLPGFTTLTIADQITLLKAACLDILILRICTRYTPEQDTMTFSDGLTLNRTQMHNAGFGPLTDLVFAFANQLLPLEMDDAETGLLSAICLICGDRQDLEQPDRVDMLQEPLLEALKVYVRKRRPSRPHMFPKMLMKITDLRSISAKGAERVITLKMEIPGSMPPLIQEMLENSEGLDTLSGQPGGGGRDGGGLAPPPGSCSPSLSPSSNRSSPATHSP
Description: HEK293 cells were seeded at a density of 2×10 per dish were seeded into 100-mm dishes and cultured overnight in DMEM containing 10% FBS. Cells were transfected with 1-4 μg of various cDNA or parental expression vectors (8 μg of DNA in total) using Lipofectamine®. Five hours after transfection, cells were fed with fresh culture media DMEM containing 10% charcoal-treated FBS with vehicle DMSO or retinoids prepared in DMSO. […]
Total cell lysates were homogenized by passing through a QIAshredder® (Qiagen) and cleared from insoluble materials by centriftigation at 12,000 g. Protein concentration was determined using a Bradford total protein assay kit (Bio-Rad). […]

Q: What does the source list for CC(/C=C/[C@@H]1C[C@]1(C)c1ccc2c(c1)C(C)(C)CCC2(C)C)=C\C(=O)O [AGN 4204]?
A: endogenous RXRα protein ([1]; CAT cells, 0.1 μM, 17 hours): a decrease of the endogenous RXRα was observed; amount of RXRα protein ([1]; HEK293, independent of β-catenin, 0.1 μM): a reduction inn the amount of RXRα; degradation of RXRα ([1]; HEK293 co-expressing RXRα with RARα): RXR-ligand-dependent degradation; concentration effective in inducing degradation of RXRα ([1]; HEK293 transfected with β-catenin and RXRα, 17 hours): 1 nM; time at which degradation of RXRα was first detected ([1]; RBC cells, 0.1 μM): 1 h; degradation of RARα [2]: RXR-ligand-dependent degradation
